Here are results for one compound from patent publication US9422255B2, “S-imino-S-oxo-iminothiazine compounds as BACE inhibitors, compositions, and their use” (Merck Sharp & Dohme Corp., priority 2013, dated 2016).

In test [1] the target is purified human autoBACE-2 (Homo sapiens, UniProt Q9Y5Z0). Put plainly: BACE-2 Assay (BACE-HTRF assay). To be noted: Ki calculated from IC50 using the Cheng-Prusoff equation; QSY7-EISEVNLDAEFC-Eu-amide substrate, pH 5.0. In kind it is biochemical. As to the method:
Inhibitor IC50s at purified human autoBACE-2 are determined in a time-resolved endpoint proteolysis assay that measures hydrolysis of the QSY7-[…]-Eu-amide FRET peptide substrate (BACE-HTRF assay). […] DMSO is present at 5% final concentration in the assay. Following laser excitation of sample wells at 320 nm, the fluorescence signal at 620 nm is collected for 400 ms following a 50 μs delay on a RUBYstar HTRF plate reader (BMG Labtechnologies). Raw RFU data is normalized to maximum (1.0 nM BACE/DMSO) and minimum (no enzyme/DMSO) RFU values. […] The Ki values are calculated from the IC50 using the Cheng-Prusoff equation.

Test [2] concerns the target soluble human BACE1 catalytic domain (Homo sapiens (Human), UniProt P56817). Kind of test: BACE1 HTRF FRET Assay. It is filed as biochemical. To be noted: Ki calculated from IC50 using the Cheng-Prusoff equation; QSY7-APPswe-Eu substrate, pH 5.0; read-out: BACE 1 Ki. The source says: Na^+-Acetate pH 5.0; 1% Brij-35; Glycerol; Dimethyl Sulfoxide (DMSO); Recombinant human soluble BACE1 catalytic domain (>95% pure); APP Swedish mutant peptide substrate (QSY7-APP^swe-Eu): QSY7-EISEVNLDAEFC-Europium-amide.
A homogeneous time-resolved FRET assay can be used to determine IC50 values for inhibitors of the soluble human BACE1 catalytic domain. This assay monitors the increase of 620 nm fluorescence that resulted from BACE1 cleavage of an APPswedish APP^swe mutant peptide FRET substrate (QSY7-EISEVNLDAEFC-Europium-amide). This substrate contains an N-terminal QSY7 moiety that serves as a quencher of the C-terminal Europium fluorophore (620 nm Em). In the absence of enzyme activity, 620 nm fluorescence is low in the assay and increased linearly over 3 hours in the presence of uninhibited BACE1 enzyme Inhibition of BACE1 cleavage of the QSY7-APP^swe-Eu substrate by inhibitors is manifested as a suppression of 620 nm fluorescence.
Varying concentrations of inhibitors at 3× the final desired concentration in a volume of 10 ul are preincubated with purified human BACE1 catalytic domain (3 nM in 10 μl) for 30 minutes at 30° C. in reaction buffer containing 20 mM Na-Acetate pH 5.0, 10% glycerol, 0.1% Brij-35 and 7.5% DSMO. […]

Broadly, the Ki is a measure of affinity in units of concentration, obtained from inhibition or displacement.

Sequence of soluble human BACE1 catalytic domain (P56817 75-416): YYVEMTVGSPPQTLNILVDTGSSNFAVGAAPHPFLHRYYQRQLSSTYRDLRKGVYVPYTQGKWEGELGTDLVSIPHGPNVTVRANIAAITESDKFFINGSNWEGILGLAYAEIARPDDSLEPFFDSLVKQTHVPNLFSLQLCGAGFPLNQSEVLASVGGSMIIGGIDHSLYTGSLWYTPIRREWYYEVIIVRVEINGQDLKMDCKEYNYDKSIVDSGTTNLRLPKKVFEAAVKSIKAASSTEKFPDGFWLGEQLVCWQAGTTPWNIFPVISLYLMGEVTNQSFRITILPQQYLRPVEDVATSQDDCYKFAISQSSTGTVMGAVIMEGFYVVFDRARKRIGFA
Sequence of purified human autoBACE-2 (Q9Y5Z0 63-518 limits assumed): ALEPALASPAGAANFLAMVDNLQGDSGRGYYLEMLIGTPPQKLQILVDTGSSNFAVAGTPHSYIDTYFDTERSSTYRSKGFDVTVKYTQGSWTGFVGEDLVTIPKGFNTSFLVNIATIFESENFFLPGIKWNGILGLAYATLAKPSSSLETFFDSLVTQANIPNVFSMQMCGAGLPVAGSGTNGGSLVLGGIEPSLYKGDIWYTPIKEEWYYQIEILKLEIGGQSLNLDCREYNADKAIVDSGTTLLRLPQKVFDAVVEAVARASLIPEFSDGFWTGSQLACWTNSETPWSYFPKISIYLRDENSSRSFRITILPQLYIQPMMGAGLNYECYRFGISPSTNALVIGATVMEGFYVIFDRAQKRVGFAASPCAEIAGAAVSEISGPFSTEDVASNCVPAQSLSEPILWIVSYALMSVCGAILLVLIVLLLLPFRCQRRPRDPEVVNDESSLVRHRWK

On to `CN=S1(=O)C[C@@](C)(c2cc(NC(=O)c3ccc(Cl)cn3)ccc2F)NC(=N)[C@@]1(C)c1ccc(F)cc1` (some centres unmarked) [Example 10a], for which the Ki was 0.106 µM in test [1] and 0.29 µM in test [2].
